ChEMBL document CHEMBL4842381, “A Novel, Selective c-Abl Inhibitor, Compound 5, Prevents Neurodegeneration in Parkinson's Disease” (J Med Chem, 2021)

How the values were obtained:
in vivo [1] = details: ICR, mouse, plasma, po, 5 mg/kg
in vivo [2] = details: ICR, mouse, plasma, po, 5 mg/kg; remark: listed apart in the source
in vivo [3] = details: ICR, mouse, brain/plasma, po, 5 mg/kg
in vivo [4] = details: ICR, mouse, plasma, po, 5 mg/kg; remark: listed apart in the source
in vivo [5] = details: ICR, mouse, plasma, po, 5 mg/kg; remark: listed apart in the source

| Tmax at 24 h (in vivo [1]) | half-life at 24 h (in vivo [2]) | Kp uu at 24 h (in vivo [3]) | AUC(0-inf) at 24 h (in vivo [4]) | Cmax at 24 h (in vivo [5]) | Compound |
| --- | --- | --- | --- | --- | --- |
| 1 h |  |  |  |  | Cc1cn(-c2cc(NC(=O)c3ccc(C)c(Nc4nccc(-c5cccnc5)n4)c3)cc(C(F)(F)F)c2)cn1 [NILOTINIB] |
| 1.2 h | 1.8 h | 0.21 | 25000 ng·h/mL | 4260 ng/mL | Cc1c(F)cncc1-c1ccc2nc(NC(=O)[C@@H]3C[C@@H]3F)sc2c1 |
